Measurements from the NIST ThermoML archive (doi:10.1021/acs.jced.6b00293).
Numbers after ± are expanded uncertainties.

Assays:
[1] = Liquid, Ebulliometric method (Recirculating still)
[2] = Boiling temperature at pressure P; settings: Liquid, Ebulliometric method (Recirculating still)

Structure (SMILES)	vapor or sublimation pressure ([1]; 315.14 K) [kPa]	vapor or sublimation pressure ([1]; 329.42 K) [kPa]	vapor or sublimation pressure ([1]; 338.61 K) [kPa]	vapor or sublimation pressure ([1]; 345.53 K) [kPa]	vapor or sublimation pressure ([1]; 351.62 K) [kPa]	Boiling temperature at pressure P ([2]; 20 kPa) [°C]	Boiling temperature at pressure P ([2]; 40 kPa) [°C]	Boiling temperature at pressure P ([2]; 60 kPa) [°C]	Boiling temperature at pressure P ([2]; 80 kPa) [°C]	Boiling temperature at pressure P ([2]; 101.3 kPa) [°C]
CCO [ethanol]	20 ± 1	40 ± 1	60 ± 1	80 ± 2	101.3 ± 1.8	–	–	–	–	–
C1CCCCC1 [cyclohexane]	–	–	–	–	–	34.77 ± 0.46	52.32 ± 0.65	63.93 ± 0.68	72.94 ± 0.72	80.96 ± 0.81
